Reference: patent publication US6576640B1, “Benzisoxazoles and phenones as α2-antagonists” (Janssen Pharmaceutica N.V., priority 1998, dated 2003)
pIC50: −log10 of the molar value.

Assays:
[1] = target: T1, cloned human α2A receptors (Homo sapiens, UniProt P08913); assay: In vitro radioligand binding affinity for α2A receptor (3H-rauwolscine competition); settings: read-out: dissociation: IC50 value for the α2a receptor
T1 construct: expressed in transfected cells; host or cells: Chinese Hamster Ovary (CHO) cells
T1 sequence (P08913 1-465): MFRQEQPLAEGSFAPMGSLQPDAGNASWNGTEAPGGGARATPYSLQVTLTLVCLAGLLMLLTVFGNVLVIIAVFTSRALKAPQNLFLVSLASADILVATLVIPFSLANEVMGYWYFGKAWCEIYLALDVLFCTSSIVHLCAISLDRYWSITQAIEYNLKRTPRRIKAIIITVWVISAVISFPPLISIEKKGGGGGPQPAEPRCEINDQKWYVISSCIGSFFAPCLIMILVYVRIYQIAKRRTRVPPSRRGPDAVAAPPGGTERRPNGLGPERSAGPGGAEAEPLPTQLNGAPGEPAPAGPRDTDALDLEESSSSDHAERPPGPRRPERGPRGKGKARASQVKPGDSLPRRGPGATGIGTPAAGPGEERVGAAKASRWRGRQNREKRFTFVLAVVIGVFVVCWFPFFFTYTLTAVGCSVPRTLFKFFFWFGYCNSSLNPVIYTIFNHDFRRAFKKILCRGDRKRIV
Method: The interaction of the compounds of formula (I) with α2 receptors was assessed in in vitro radioligand binding experiments.
In general, a low concentration of a radioligand with a high binding affinity for a particular receptor is incubated with a sample of a tissue preparation enriched in a particular receptor or with a preparation of cells expressing cloned human receptors in a buffered medium. During the incubation, the radioligand binds to the receptor. When equilibrium of binding is reached, the receptor bound radioactivity is separated from the non-bound radioactivity, and the receptor bound activity is counted. The interaction of the test compounds with the receptor is assessed in competition binding experiments. Various concentrations of the test compound are added to the incubation mixture containing the receptor preparation and the radioligand. Binding of the radioligand will be inhibited by the test compound in proportion to its binding affinity and its concentration.
The radioligand used for α2A, α2B and α2C receptor binding is ^3H-rauwolscine and the receptor preparation used is the Chinese Hamster Ovary (CHO) cell expressing cloned human α2A, α2B and α2C receptors.

dopamine D2 receptor = dopamine D2 receptor (Homo sapiens, UniProt P14416); assay: Receptor binding affinity for dopamine D2 (dissociation α2a / D2); settings: for Ratio D2/α2a (dissociation between the two receptors): ratio of IC50 D2 to IC50 α2a; for pIC50: receptor binding affinity, dopamine D2
Chain of dopamine D2 receptor (P14416 whole entry, species assumed): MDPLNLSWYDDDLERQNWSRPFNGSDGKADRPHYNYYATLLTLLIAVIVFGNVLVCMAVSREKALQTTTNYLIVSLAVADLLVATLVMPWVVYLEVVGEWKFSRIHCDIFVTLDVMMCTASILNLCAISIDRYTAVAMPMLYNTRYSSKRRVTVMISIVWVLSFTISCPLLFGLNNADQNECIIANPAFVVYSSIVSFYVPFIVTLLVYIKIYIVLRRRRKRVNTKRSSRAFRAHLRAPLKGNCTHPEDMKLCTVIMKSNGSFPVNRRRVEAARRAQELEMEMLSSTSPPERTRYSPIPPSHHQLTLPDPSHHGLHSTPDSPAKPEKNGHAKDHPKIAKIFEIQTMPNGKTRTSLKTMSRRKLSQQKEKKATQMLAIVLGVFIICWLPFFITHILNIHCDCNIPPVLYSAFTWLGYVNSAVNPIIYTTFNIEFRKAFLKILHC
Excerpt: As already mentioned above, dopamine D2 antagonism may lead to an increased risk of EPS. Thus, the larger the dissociation between α2a and D2, the better. The columns headed “dissociation” show the IC50 value in molar (M) for the α2a receptor and the D2 receptor. By “Ratio” is meant the ratio D2/αa and this is an indication for the dissociation between said two receptors.

pIC50 [1] | Ratio D2/α2a (dissociation between the two receptors) (dopamine D2 receptor) | pIC50 (dopamine D2 receptor) | melting point | SMILES
8.30 | 79 | 6.40 | 190 °C | O=C(CCCCCN1CCc2[nH]c3ccccc3c2C1)c1ccc(F)cc1 [Comp. 1]
7.39 | 2.5 | 7.00 | – | O=C(CCCN1CCc2[nH]c3ccccc3c2C1)c1ccc(F)cc1 [reference compound]
8.68 | 102 | 6.68 | – | O=C(CCCN1CCc2oc3ccccc3c2C1)c1ccc(F)cc1 [reference compound]

SMILES | pIC50 [1] | Ratio D2/α2a (dissociation between the two receptors) (dopamine D2 receptor) | pIC50 (dopamine D2 receptor) | melting point
O=C(CCCCCN1CCc2oc3ccccc3c2C1)c1ccc(F)cc1 [Comp. 2, 1-(4-fluorophenyl)-6-(1,2,3,4-tetrahydrobenzofuro[3,2-c]pyridin-2-yl)-1-hexanone (E)-2-butenedioate (1:1)] | 9.59 | 1950 | 6.30 | –
